The values that follow come from patent US4684651A, “Alkylenedioxybenzene and acid addition salts thereof useful as hypotensives” (Mitsubishi Chemical Industries Limited, priority 1981, dated 1987).

Structures can show the parent of a compound that is named as a salt.

The subject of data set [1] is spontaneous hypertensive rats (SHR). Put plainly: Hypotensive activity in spontaneous hypertensive rats (oral). The class given is in vivo. The conditions noted are these: Rattus norvegicus, relative to blood pressure before medication, read-out: Hypotensive effect (average % drop in blood pressure); for inhibition in vivo at 1 mg/kg: 1 mg/kg p.o.; for inhibition in vivo at 3 mg/kg: 3 mg/kg p.o.; for inhibition in vivo at 10 mg/kg: 10 mg/kg p.o. As for the experimental part:
The hypotensive activities of the compounds of this invention were tested as follows: The test animals used were spontaneous hypertensive rats (SHR) of 5 to 7 month old weighing 300 to 370 g. The blood pressure and the heart rate were measured bloodily under no anesthesia by means of a catheter which has been inserted through the tail's artery under ether anesthesia, thereby determining the average blood pressure and heart rate before medication. […] The hypotensive effect was expressed as percent drop relative to the blood pressure before medication.

Data set [2] can be described thus: Acute toxicity (LD50) in mice. The conditions noted are these: mouse, in vivo, iv, Litchfield-Wilcoxon method. As for the experimental part: The values for acute toxicity (LD50) were calculated by the Litchfield-Wilcoxon method from the data obtained on mice.

As for `COc1ccccc1N1CCN(CC(O)c2ccc3c(c2)OCO3)CC1` (centres unmarked) [Compound 2, 5-[2-[4-(2-methoxyphenyl)-1-piperazinyl]-1-hydroxyethyl]-1,3-benzodioxole], in data set [1], the inhibition in vivo at 1 mg/kg turned out to be 10.2%, the inhibition in vivo at 3 mg/kg stood at 19.2% and the inhibition in vivo at 10 mg/kg amounted to 36.5%.
Regarding `OC(CN1CCN(c2ccccc2)CC1)c1ccc2c(c1)OCCCO2` (centres unmarked) [Compound 8, 7-[2-(4-phenyl-1-piperazinyl)-1-hydroxyethyl]-1,5-benzodioxepine], in data set [1], the inhibition in vivo at 1 mg/kg stood at 8.6%, the inhibition in vivo at 3 mg/kg came to 14.1% and the inhibition in vivo at 10 mg/kg turned out to be 25%.
For the compound `OC(CCN1CCN(c2ccccc2Cl)CC1)c1ccc2c(c1)OCCO2` (centres unmarked) [Compound 16], in data set [1], the inhibition in vivo at 1 mg/kg was found to be 7.9%, the inhibition in vivo at 3 mg/kg worked out at 11.9% and the inhibition in vivo at 10 mg/kg is 29.8%.
For `COc1ccccc1N1CCN(CCC(O)c2ccc3c(c2)OCCO3)CC1` (centres unmarked) [Compound 17] the same measures were 8.1%, 20.5% and 53.1%.
On the same counts, the results for `OC(CCCN1CCN(c2ccccc2)CC1)c1ccc2c(c1)OCO2` (centres unmarked) [Compound 19, 5-[4-(4-phenyl-1-piperazinyl)-1-hydroxybutyl]-1,3-benzodioxole dihydrochloride] are 12.8%, 45.9% and 56.6%.
For `OC(CCCN1CCN(c2ccccc2)CC1)c1ccc2c(c1)OCCO2` (centres unmarked) [Compound 20, 6-[4-(4-phenyl-1-piperazinyl)-1-hydroxybutyl]-1,4-benzodioxane] the same measures were 13.7%, 38.4% and 56.1%.
As a reminder, the LD50 is the dose at which mortality reaches 50%. Low readings indicate a more toxic substance, high ones a less toxic substance. `OC(CCCN1CCN(c2ccccc2)CC1)c1ccc2c(c1)OCCCO2` (centres unmarked) [Compound 21]: in data set [1], the inhibition in vivo at 1 mg/kg turned out to be 19.8%, the inhibition in vivo at 3 mg/kg was determined as 30.9% and the inhibition in vivo at 10 mg/kg is 43.4%. In data set [2], the LD50 came to 184 mg/kg.
For `OC(CCCN1CCN(c2ccccn2)CC1)c1ccc2c(c1)OCCCO2` (centres unmarked) [Compound 25] the same measures were 30.3%, 35.8%, 43.9% and 68.5 mg/kg.
As for `OC(CCCCN1CCN(c2ccccc2)CC1)c1ccc2c(c1)OCO2` (centres unmarked) [Compound 26, 5-[5-(4-phenyl-1-piperazinyl)-1-hydroxypentyl]-1,3-benzodioxole], in data set [1], the inhibition in vivo at 1 mg/kg was determined as 13%, the inhibition in vivo at 3 mg/kg worked out at 21.9% and the inhibition in vivo at 10 mg/kg came out at 52.6%.
For `OC(CCCCN1CCN(c2ccccc2)CC1)c1ccc2c(c1)OCCCO2` (centres unmarked) [Compound 29, 7-[5-(4-phenyl-1-piperazinyl)-1-hydroxypentyl]-1,5-benzodioxepine] the same measures were 10.8%, 27.5% and 50.7%.
Regarding `OC(CCCN1CCN(c2ccccn2)CC1)c1ccc2c(c1)OCO2` (centres unmarked) [Compound 31, 5-[4-[4-(2-pyridyl)-1-piperazinyl]-1-hydroxybutyl]-1,3-benzodioxole], in data set [1], the inhibition in vivo at 1 mg/kg was determined as 11.5%, the inhibition in vivo at 3 mg/kg is 33.6% and the inhibition in vivo at 10 mg/kg stood at 45.7%.
For `COc1ccccc1N1CCN(CCCC(O)c2ccc3c(c2)OCCO3)CC1` (centres unmarked) [Compound 33, 6-[4-[4-(2-methoxyphenyl)-1-piperazinyl]-1-hydroxybutyl]-1,4-benzodioxane] the same measures were 22.6%, 41.8% and 43.2%.
As to `COc1ccccc1N1CCN(CCCC(O)c2ccc3c(c2)OCCCO3)CC1` (centres unmarked) [Compound 34, 7-[4-[4-(2-methoxyphenyl)-1-piperazinyl]-1-hydroxybutyl]-1,5-benzodioxepine], in data set [1], the inhibition in vivo at 1 mg/kg was determined as 24.5%, the inhibition in vivo at 3 mg/kg was 40.4% and the inhibition in vivo at 10 mg/kg is 48%.
On the same counts, the results for `OC(CCCCN1CCN(c2ccccn2)CC1)c1ccc2c(c1)OCCCO2` (centres unmarked) [Compound 36] are 10.1%, 19.4% and 31%.
With `COc1ccccc1N1CCN(CCCCC(O)c2ccc3c(c2)OCCCO3)CC1` (centres unmarked) [Compound 37], in data set [1], the inhibition in vivo at 1 mg/kg came to 15.6%, the inhibition in vivo at 3 mg/kg was 30.4% and the inhibition in vivo at 10 mg/kg amounted to 45.7%.
With `O=C(CCN1CCN(c2cccc(F)c2)CC1)c1ccc2c(c1)OCCO2` [Compound 51], in data set [1], the inhibition in vivo at 1 mg/kg was determined as 5.9%, the inhibition in vivo at 3 mg/kg was determined as 14.5% and the inhibition in vivo at 10 mg/kg was 49.9%.
On the same counts, the results for `O=C(CCN1CCN(c2ccccc2)CC1)c1ccc2c(c1)OCCCO2` [Compound 56] are 6.2%, 17% and 31.5%.
On to `O=C(CCCN1CCN(c2ccccc2)CC1)c1ccc2c(c1)OCCO2` [Compound 58, 6-[4-(4-phenyl-1-piperazinyl)butyryl]-1,4-benzodioxane], for which, in data set [1], the inhibition in vivo at 1 mg/kg amounted to 12.7%, the inhibition in vivo at 3 mg/kg is 51.6% and the inhibition in vivo at 10 mg/kg stood at 62.7%.
`O=C(CCCN1CCN(c2ccccc2)CC1)c1ccc2c(c1)OCCCO2` [Compound 59]: in data set [1], the inhibition in vivo at 1 mg/kg was found to be 9.8%, the inhibition in vivo at 3 mg/kg is 34.4% and the inhibition in vivo at 10 mg/kg is 40.5%.
Turning to `O=C(CCCCN1CCN(c2ccccc2)CC1)c1ccc2c(c1)OCO2` [Compound 64, 5-[5-(4-phenyl-1-piperazinyl]valeryl]-1,3-benzodioxole], in data set [1], the inhibition in vivo at 1 mg/kg was determined as 10.1%, the inhibition in vivo at 3 mg/kg was 21.3% and the inhibition in vivo at 10 mg/kg came to 54.5%. In data set [2], this compound had an LD50 of 45.7 mg/kg.
Consider `O=C(CCCCN1CCN(c2ccccc2)CC1)c1ccc2c(c1)OCCO2` [Compound 65, 6-[5-(4-phenyl-1-piperwzinyl)valeryl]-1,4-benzodioxane], for which the inhibition in vivo at 1 mg/kg in data set [1] stood at 21.7%.
As for `O=C(CCCCN1CCN(c2ccccc2)CC1)c1ccc2c(c1)OCCCO2` [Compound 68, 7-[5-(4-phenyl-1-piperazinyl)valeryl]-1,5-benzodioxepine], in data set [1], the inhibition in vivo at 1 mg/kg is 12.5%, the inhibition in vivo at 3 mg/kg was found to be 28.6% and the inhibition in vivo at 10 mg/kg was 44%.
For the compound `COc1ccccc1N1CCN(CCCCC(=O)c2ccc3c(c2)OCCCO3)CC1` [Compound 69], the inhibition in vivo at 1 mg/kg in data set [1] was found to be 23.8%.
For `O=C(CCCN1CCN(c2ccccn2)CC1)c1ccc2c(c1)OCO2` [Compound 71, 5-[4-[4-(2-pyridyl)-1-piperazinyl]butyryl]-1,3-benzodioxole], in data set [1], the inhibition in vivo at 1 mg/kg was determined as 11.5%, the inhibition in vivo at 3 mg/kg was 20.9% and the inhibition in vivo at 10 mg/kg came to 43.1%.
On the same counts, the results for `O=C(CCCN1CCN(c2ccccn2)CC1)c1ccc2c(c1)OCCO2` [Compound 72, 6-[4-[4-(2-pyridyl)-1-piperazinyl]butyryl]-1,4-benzodioxane] are 10.1%, 25.3% and 46.4%.
As to `COc1ccccc1N1CCN(CCCC(=O)c2ccc3c(c2)OCCO3)CC1` [Compound 74, 6-[4-[4-(2-methoxyphenyl)-1-piperazinyl]butyryl]-1,4-benzodioxane], the inhibition in vivo at 1 mg/kg in data set [1] was 29.9%.
Regarding `COc1ccccc1N1CCN(CCCCC(=O)c2ccc3c(c2)OCCO3)CC1` [Compound 76, 6-[5-[4-(2-methoxyphenyl)-1-piperazinyl]varleryl]-1,4-benzodioxane], in data set [1], the inhibition in vivo at 1 mg/kg came out at 8.6%, the inhibition in vivo at 3 mg/kg came to 23.7% and the inhibition in vivo at 10 mg/kg was determined as 56.7%.
Turning to `COc1ccccc1N1CCN(CCCCC(=O)c2ccc3c(c2)OCO3)CC1` [Compound 77, 5-[5-[4-(2-methoxyphenyl)-1-piperazinyl]valeryl]-1,3-benzodioxole], in data set [1], the inhibition in vivo at 1 mg/kg is 12.9%, the inhibition in vivo at 3 mg/kg was found to be 21.5% and the inhibition in vivo at 10 mg/kg came out at 34.5%.
For the compound `O=C(CCCCN1CCN(c2ccccn2)CC1)c1ccc2c(c1)OCCCO2` [Compound 78, 7-[5-[4-(2-pyridyl)-1-piperazinyl]valeryl]-1,5-benzodioxepine], in data set [1], the inhibition in vivo at 1 mg/kg worked out at 13.7%, the inhibition in vivo at 3 mg/kg came out at 24.9% and the inhibition in vivo at 10 mg/kg came to 27.8%.
On the same counts, the results for `COc1ccccc1N1CCN(CCCCC(=O)c2ccc3c(c2)OCC(C)(C)CO3)CC1` [Compound 79, 7-[5-[4-(2-methoxyphenyl)-1-piperazinyl]valeryl]-3,3-dimethyl-1,5-benzodioxepine] are 8%, 15.8% and 32.5%.
With `COc1ccccc1N1CCN(CCN(C(C)=O)c2ccc3c(c2)OCO3)CC1` [Compound 81, N-[2-[4-(2-methoxyphenyl)-1-piperazinyl]ethyl]-N-acetyl-3,4-methylenedioxyaniline hydrochloride], in data set [1], the inhibition in vivo at 1 mg/kg is 15.5% and the inhibition in vivo at 3 mg/kg was found to be 21.2%.
